Patent US20230027361A1, “METTL3 MODULATORS” (priority 2019, published 2023)
Where two headings read alike, the source gives them in different places.

Legend:
METTL16 = molecular target: T1, METTL16 (Homo sapiens, UniProt Q86W50); experiment: METTL16 Assay (METTL16 biochemical assay); conditions: read-out: METTL16 IC50
T1 sequence (Q86W50 1-562): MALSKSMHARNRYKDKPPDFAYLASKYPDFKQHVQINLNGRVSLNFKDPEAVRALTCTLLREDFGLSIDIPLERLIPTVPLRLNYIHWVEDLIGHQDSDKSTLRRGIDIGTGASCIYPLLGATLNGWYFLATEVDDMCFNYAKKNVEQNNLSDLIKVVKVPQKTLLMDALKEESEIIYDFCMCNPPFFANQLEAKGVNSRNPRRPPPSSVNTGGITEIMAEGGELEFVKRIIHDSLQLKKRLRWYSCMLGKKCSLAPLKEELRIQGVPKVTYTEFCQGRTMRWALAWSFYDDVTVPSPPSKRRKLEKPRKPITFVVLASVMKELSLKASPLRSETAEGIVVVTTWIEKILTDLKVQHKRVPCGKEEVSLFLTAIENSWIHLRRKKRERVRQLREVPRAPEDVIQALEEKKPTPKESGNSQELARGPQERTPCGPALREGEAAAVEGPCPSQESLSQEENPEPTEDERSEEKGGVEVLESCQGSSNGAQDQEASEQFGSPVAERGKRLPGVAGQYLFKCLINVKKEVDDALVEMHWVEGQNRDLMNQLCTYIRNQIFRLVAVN
Procedure, shortened: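 Radiometric methyltransferase reaction at ambient temperature in 20 mM HEPES pH 7.5, 50 mM KCl, 1 mM DTT, with 100 nM enzyme preincubated 5 min with compound. It was started with 50 nM 3′-biotinylated RNA, 200 nM 3H-SAM plus 800 nM cold SAM, run 20 min, then quenched with excess cold SAM. Product was captured on streptavidin flashplates and scintillation-counted.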

[1] = test system: m6A in cellular mRNA of MOLM-13 cells; experiment: m6A-mRNA LC-MS/MS Assay (m6A cellular assay); type: cell-based; conditions: Homo sapiens, MOLM-13, read-out: m^6A IC50
Procedure, shortened: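 Cells harvested, mRNA extracted and digested to single nucleosides, then analysed by LC-MS/MS. Nucleosides quantified against a standard curve from pure nucleoside standards run in the same batch. m6A level expressed as 100*(m6A/A).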

PRMT5-MEP50 = PRMT5-MEP50 (Homo sapiens, UniProt O14744); experiment: PRMT5 Assay (PRMT5 biochemical assay)
Procedure, shortened: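 PRMT5-MEP50 (2.5 nM final) preincubated 5 min with compound, then reacted 60 min at ambient temperature with 100 nM biotinylated N-acetyl histone H4 peptide and 250 nM 3H-SAM in 20 mM Tris-HCl pH 8.0, 1 mM DTT, 0.01% Tween. Quenched with 15 μM cold SAM; methylated peptide captured on streptavidin flashplates, scintillation counted.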

METTL3/METTL14 = METTL3/METTL14 (Homo sapiens, UniProt Q86U44); experiment: METTL3-14 Standard Enzyme Assay (METTL3 biochemical assay)
Procedure, shortened: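 METTL3/METTL14 at 2.5 nM, preincubated 5 min with compound in 20 mM HEPES pH 7.5, 50 mM KCl, 250 μM MgCl2, 1 mM DTT, at ambient temperature. Started with 100 nM 3′-biotinylated RNA and 100 nM ³H-SAM, quenched at 30 min with 15 μM cold SAM. Methylation read by scintillation on streptavidin flashplates.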

[2] = read-out: PRMT5 IC50; PRMT5 biochemical assay
[3] = read-out: METTL3 IC50; METTL3 biochemical assay
[4] = PRMT5 biochemical assay; read-out: PRMT5 IC50
[5] = METTL3 biochemical assay; read-out: METTL3 IC50

METTL3/METTL14, sequence (Q86U44 whole entry, species assumed): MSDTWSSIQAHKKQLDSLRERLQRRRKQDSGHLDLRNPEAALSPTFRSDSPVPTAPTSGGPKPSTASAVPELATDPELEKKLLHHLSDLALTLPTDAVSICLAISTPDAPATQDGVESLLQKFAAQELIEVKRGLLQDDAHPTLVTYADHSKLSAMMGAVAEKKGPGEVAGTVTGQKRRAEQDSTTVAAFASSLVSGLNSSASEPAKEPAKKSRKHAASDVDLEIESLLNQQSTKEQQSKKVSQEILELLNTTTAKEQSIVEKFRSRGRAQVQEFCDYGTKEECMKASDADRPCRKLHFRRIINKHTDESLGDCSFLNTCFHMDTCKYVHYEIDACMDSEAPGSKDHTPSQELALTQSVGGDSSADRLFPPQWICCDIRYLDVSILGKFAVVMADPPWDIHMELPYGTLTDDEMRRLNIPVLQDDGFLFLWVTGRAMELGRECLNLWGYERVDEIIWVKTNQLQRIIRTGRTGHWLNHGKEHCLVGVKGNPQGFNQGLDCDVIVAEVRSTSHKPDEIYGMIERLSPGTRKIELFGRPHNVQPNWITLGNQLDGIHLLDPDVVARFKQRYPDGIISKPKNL
METTL3/METTL14, sequence (Q9HCE5 whole entry partner, species assumed): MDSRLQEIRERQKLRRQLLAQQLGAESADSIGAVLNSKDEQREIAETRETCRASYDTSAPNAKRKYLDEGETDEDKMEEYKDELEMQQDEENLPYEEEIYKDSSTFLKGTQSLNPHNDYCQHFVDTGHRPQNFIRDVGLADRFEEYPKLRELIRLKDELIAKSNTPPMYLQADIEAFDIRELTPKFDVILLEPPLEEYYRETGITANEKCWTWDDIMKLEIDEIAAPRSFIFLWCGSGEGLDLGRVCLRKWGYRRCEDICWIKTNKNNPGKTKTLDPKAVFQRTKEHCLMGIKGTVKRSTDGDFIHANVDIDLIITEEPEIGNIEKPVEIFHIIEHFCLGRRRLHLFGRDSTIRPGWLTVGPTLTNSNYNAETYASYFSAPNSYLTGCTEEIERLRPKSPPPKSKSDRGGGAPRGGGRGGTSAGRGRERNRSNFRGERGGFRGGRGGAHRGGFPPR
PRMT5-MEP50, sequence (O14744 whole entry): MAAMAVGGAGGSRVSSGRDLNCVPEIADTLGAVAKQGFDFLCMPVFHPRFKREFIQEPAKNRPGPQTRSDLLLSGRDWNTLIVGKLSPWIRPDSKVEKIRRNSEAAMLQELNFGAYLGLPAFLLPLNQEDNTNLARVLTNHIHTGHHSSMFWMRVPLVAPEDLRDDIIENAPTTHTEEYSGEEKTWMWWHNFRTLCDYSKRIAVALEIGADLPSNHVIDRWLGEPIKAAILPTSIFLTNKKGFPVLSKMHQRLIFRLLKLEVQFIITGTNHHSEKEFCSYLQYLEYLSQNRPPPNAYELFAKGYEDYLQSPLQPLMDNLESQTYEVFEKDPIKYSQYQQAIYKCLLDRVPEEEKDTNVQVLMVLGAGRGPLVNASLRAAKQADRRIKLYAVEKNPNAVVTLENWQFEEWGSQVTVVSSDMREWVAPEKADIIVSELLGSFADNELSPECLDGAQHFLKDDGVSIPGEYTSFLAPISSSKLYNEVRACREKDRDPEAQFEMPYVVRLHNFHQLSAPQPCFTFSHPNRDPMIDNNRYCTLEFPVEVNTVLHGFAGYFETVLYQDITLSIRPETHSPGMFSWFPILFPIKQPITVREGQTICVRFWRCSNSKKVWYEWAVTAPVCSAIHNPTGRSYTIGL
PRMT5-MEP50, sequence (Q9BQA1 whole entry partner): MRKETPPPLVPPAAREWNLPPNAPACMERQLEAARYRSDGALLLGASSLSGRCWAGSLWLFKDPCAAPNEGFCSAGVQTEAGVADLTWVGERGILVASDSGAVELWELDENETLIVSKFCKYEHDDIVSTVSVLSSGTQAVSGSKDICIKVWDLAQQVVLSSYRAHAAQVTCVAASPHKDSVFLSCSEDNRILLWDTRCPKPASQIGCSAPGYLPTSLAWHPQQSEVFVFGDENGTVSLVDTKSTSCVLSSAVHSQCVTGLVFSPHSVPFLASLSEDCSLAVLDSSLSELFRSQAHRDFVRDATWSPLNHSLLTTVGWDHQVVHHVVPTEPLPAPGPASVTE

| SMILES | IC50 (METTL16) [nM] | IC50 [1] [nM] | IC50 (PRMT5-MEP50; [2]) [nM] | IC50 (METTL3/METTL14; [3]) [nM] | IC50 (PRMT5-MEP50; [4]) [nM] | IC50 (METTL3/METTL14; [5]) [nM] |
| --- | --- | --- | --- | --- | --- | --- |
| CCNc1ccc2ccc(OC[C@H]3O[C@@H](n4cc(-c5cn(C)cn5)c5c(N)ncnc54)[C@@H](F)[C@@H]3O)cc2n1 [I-10] | > 1000 | 1000 to 10000 | 100 to 1000 | < 10 |  |  |
| CNc1ccc2ccc(OC[C@H]3O[C@@H](n4cc(-c5ccn(C)n5)c5c(N)ncnc54)[C@@H](F)[C@@H]3O)cc2n1 [I-12] | > 1000 | < 1000 | 10 to 100 | < 10 |  |  |
| CNc1ccc2ccc(OC[C@H]3O[C@@H](n4cc(CC5CCCC5)c5c(N)ncnc54)[C@H](O)[C@@H]3O)cc2n1 [I-23] | > 1000 | 1000 to 10000 |  |  | 10 to 100 | < 10 |
| CNc1ccc2ccc(OC[C@H]3O[C@@H](n4cc(C5CC5)c5c(N)ncnc54)[C@@H](F)[C@@H]3O)cc2n1 [I-29] | > 1000 | 1000 to 10000 |  |  | 100 to 1000 | < 10 |
| CNc1ccc2ccc(OC[C@H]3O[C@@H](n4cc(C5CCCC5)c5c(N)ncnc54)[C@H](O)[C@@H]3O)cc2n1 [I-33, (2R,3R,4S,5R)-2-(4-amino-5-cyclopentyl-7H-pyrrolo[2,3-d]pyrimidin-7-yl)-5-(((2-(methylamino)quinolin-7-yl)oxy)methyl)tetrahydrofuran-3,4-diol] | > 1000 | < 1000 |  |  | < 10 | < 10 |
| CNc1ccc2ccc(OC[C@H]3O[C@@H](n4cc(CC5CC5)c5c(N)ncnc54)[C@@H](F)[C@@H]3O)cc2n1 [I-36] | > 1000 | 1000 to 10000 |  |  | 100 to 1000 | < 10 |
| CNc1ccc2ccc(CC[C@H]3O[C@@H](n4cc(C5CCCC5)c5c(N)ncnc54)[C@H](O)[C@@H]3O)cc2n1 [I-39] | > 1000 | 1000 to 10000 |  |  | < 10 | < 10 |
| CNc1ccc2ccc(OC[C@H]3O[C@@H](n4cc(Cl)c5c(N)ncnc54)[C@H](O)[C@@H]3O)cc2n1 [I-70] | > 1000 | 1000 to 10000 |  |  | < 10 | < 10 |
| CNc1ccc2ccc(OC[C@H]3O[C@@H](n4cc(Br)c5c(N)ncnc54)[C@H](O)[C@@H]3O)cc2n1 [I-73] | > 1000 | 1000 to 10000 |  |  | < 10 | < 10 |
| Cn1ccc(-c2cn([C@@H]3O[C@H](COc4ccc5ccc(N6CCC6)nc5c4)[C@@H](O)[C@@H]3F)c3ncnc(N)c23)n1 [I-149] | > 1000 | < 1000 | > 1000 | < 10 |  |  |
